Reference: patent US5215982A, “Cephem compounds” (Fujisawa Pharmaceutical Co., Ltd., priority 1989, dated 1993)

Tested on: E. coli 31
Experiment: In vitro antibacterial activity, two-fold agar-plate dilution method (MIC)
Assay type: cell-based
Conditions: Escherichia coli, 10^6 viable cells per ml, heart infusion agar, 37° C., 20 hours, read-out: MIC (minimal inhibitory concentration)
Experimental: Now in order to show the utility of the object compound (I), the test data on MIC (minimal inhibitory concentration) of a representative compound of the compound (I) are shown in the following.
In vitro antibacterial activity was determined by the two-fold agar-plate dilution method as described below.
One loopful of an overnight culture of each test strain in Trypticase-soy broth (10^6 viable cells per ml) was streaked on heart infusion agar (HI-agar) containing graded concentrations of representative test compound, and the minimal inhibitory concentration (MIC) was expressed in terms of μg/ml after incubation at 37° C. for 20 hours.

MIC: ≤ 0.025 µg/mL
SMILES: CON=C(C(=O)NC1C(=O)N2C(C(=O)[O-])=C(C[n+]3ccc4[nH]ccn43)CSC12)c1nsc(N)n1 (stereo not drawn) [Test Compound (1), 7β-[2-(5-Amino-1,2,4-thiadiazol-3-yl)-2-methoxyiminoacetamido]-3-[5-(1H-imidazo[1,2-b]pyrazolio)]methyl-3-cephem-4-carboxylate (syn isomer)]
